Measurements reported in patent publication US20210395313A1, “PEPTIDE PAC1 ANTAGONISTS” (AMGEN INC., priority 2017, published 2021).
Where a SMILES comes first, the peptide text is derived from it. Bridges are numbered along the chain shown (N, C = ends). Where no end group is shown, it is not given here.

Target: T1, rat PAC1 receptor (Rattus norvegicus, UniProt P32215)
T1 construct: SHSY-5Y (human neuroblastoma cell line) and RG-2 (rat glioma cell line) cells endogenously express human and rat PAC1 receptors, respectively; endogenous in cells; host or cells: RG-2 rat glioma cells
T1 sequence (P32215 20-523): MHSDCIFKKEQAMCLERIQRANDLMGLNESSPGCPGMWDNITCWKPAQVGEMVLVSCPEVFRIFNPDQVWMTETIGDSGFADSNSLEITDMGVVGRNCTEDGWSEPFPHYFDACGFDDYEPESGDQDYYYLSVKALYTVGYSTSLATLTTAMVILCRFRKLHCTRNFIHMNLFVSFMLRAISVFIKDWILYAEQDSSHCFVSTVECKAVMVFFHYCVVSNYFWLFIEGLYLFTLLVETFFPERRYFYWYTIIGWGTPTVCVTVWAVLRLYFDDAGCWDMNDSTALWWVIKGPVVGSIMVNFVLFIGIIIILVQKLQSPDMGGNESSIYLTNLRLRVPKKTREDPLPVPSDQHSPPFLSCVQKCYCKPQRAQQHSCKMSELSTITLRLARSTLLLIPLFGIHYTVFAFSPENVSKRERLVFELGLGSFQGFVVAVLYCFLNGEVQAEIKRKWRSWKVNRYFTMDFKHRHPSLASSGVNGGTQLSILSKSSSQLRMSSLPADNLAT
Experiment: LANCE Ultra cAMP accumulation antagonist assay in RG-2 cells;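 note: RG-2 rat glioma cells endogenously expressing PAC1, test peptide preincubated 30 min, then PAC1 agonist added at its EC80 for 15 min, cAMP accumulation read by LANCE Ultra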
Format: cell-based

Compound	IC50 [nM]
CC[C@H](C)[C@H](NC(=O)[C@H](C)NC(=O)[C@H](CCCCN)NC(=O)[C@H](CCCNC(=N)N)NC(=O)[C@H](Cc1ccccc1)NC(=O)[C@H](CCC(N)=O)NC(=O)[C@@H]1CSSC[C@H](N)C(=O)N[C@@H](CC(=O)O)C(=O)N[C@@H](C)C(=O)N[C@@H]([C@@H](C)O)C(=O)N1)C(=O)N[C@@H](CC(=O)O)C(=O)N[C@@H](CC(=O)O)C(=O)N[C@H]1CSSC[C@@H](C(=O)N[C@@H](CCSC)C(=O)N[C@@H](CCCCN)C(=O)N[C@@H](CCC(N)=O)C(=O)N[C@@H](CCCCN)C(=O)N[C@@H](CCCCN)C(=O)N[C@@H](CCCCN)C(=O)N[C@@H](CCC(=O)O)C(=O)N[C@@H](Cc2c[nH]c3ccccc23)C(=O)N[C@@H](CCCCN)C(=O)N[C@@H](C)C(=O)NCC(N)=O)NC(=O)[C@H](CO)NC(=O)[C@H](CCCCN)NC(=O)[C@H](Cc2ccccc2)NC(=O)[C@H](C(C)C)NC(=O)[C@H](CO)NC(=O)[C@H](CO)NC(=O)[C@H](Cc2c[nH]cn2)NC(=O)[C@H](Cc2ccc(O)cc2)NC(=O)[C@H](C)NC(=O)[C@H](CCC(N)=O)NC(=O)[C@H](CCCNC(=N)N)NC(=O)[C@H](C)NC1=O [compound 430] (H-CDATCQFRKAIDDCARQAYHSSVFKSCMKQKKKEWKAG-NH2; disulfide 1-5, 14-27)	< 0.01
CDATCQFRKAIDDCQKQAHHSNVPGSVFKACMKQKKKEFKAN-NH2 (disulfide 1-5, 14-31) [compound 205]	0.01 to 1
CDATCQFRKAIDDCQKQAHHSNVPGSVFKACMKQKKKEFKAGY (disulfide 1-5, 14-31) [compound 164]	0.01 to 1
CC[C@H](C)[C@H](NC(=O)[C@H](C)NC(=O)[C@H](CCCCN)NC(=O)[C@H](CCCNC(=N)N)NC(=O)[C@H](Cc1ccccc1)NC(=O)[C@H](CCC(N)=O)NC(=O)[C@@H]1CSSC[C@H](N)C(=O)N[C@@H](CC(=O)O)C(=O)N[C@@H](C)C(=O)N[C@@H]([C@@H](C)O)C(=O)N1)C(=O)N[C@@H](CC(=O)O)C(=O)N[C@@H](CC(=O)O)C(=O)N[C@H]1CSSC[C@@H](C(=O)N[C@@H](CCSC)C(=O)N[C@@H](CCCCN)C(=O)N[C@@H](CCC(N)=O)C(=O)N[C@@H](CCCCN)C(=O)N[C@@H](CCCCN)C(=O)N[C@@H](CCCCN)C(=O)N[C@@H](CCC(=O)O)C(=O)N[C@@H](Cc2ccccc2)C(=O)N[C@@H](CCCCN)C(=O)N[C@@H](C)C(=O)NCC(=O)O)NC(=O)[C@H](C)NC(=O)[C@H](CCCCN)NC(=O)[C@H](Cc2ccccc2)NC(=O)[C@H](C(C)C)NC(=O)[C@H](CO)NC(=O)CNC(=O)[C@@H]2CCCN2C(=O)[C@H](C(C)C)NC(=O)[C@H](CC(N)=O)NC(=O)[C@H](CO)NC(=O)[C@H](Cc2c[nH]cn2)NC(=O)[C@H](Cc2c[nH]cn2)NC(=O)[C@H](C)NC(=O)[C@H](CCC(N)=O)NC(=O)[C@H](CCCCN)NC(=O)[C@H](CCC(N)=O)NC1=O [SEQ ID NO 190]	0.01 to 1
CDATCQFRKAIDDCQKQAHHSNVPGSVFKACMKQKKKEFKAGF (disulfide 1-5, 14-31) [compound 172]	0.01 to 1
CC[C@H](C)[C@H](NC(=O)[C@H](C)NC(=O)[C@H](CCCCN)NC(=O)[C@H](CCCNC(=N)N)NC(=O)[C@H](Cc1ccccc1)NC(=O)[C@H](CCC(N)=O)NC(=O)[C@@H]1CSSC[C@H](N)C(=O)N[C@@H](CC(=O)O)C(=O)N[C@@H](C)C(=O)N[C@@H]([C@@H](C)O)C(=O)N1)C(=O)N[C@@H](CC(=O)O)C(=O)N[C@@H](CC(=O)O)C(=O)N[C@H]1CSSC[C@@H](C(=O)N[C@@H](CCSC)C(=O)N[C@@H](CCCCN)C(=O)N[C@@H](CCC(N)=O)C(=O)N[C@@H](CCCCN)C(=O)N[C@@H](CCCCN)C(=O)N[C@@H](CCCCN)C(=O)N[C@@H](CCC(=O)O)C(=O)N[C@@H](Cc2c[nH]c3ccccc23)C(=O)N[C@@H](CCCCN)C(=O)N[C@@H](C)C(=O)NCC(N)=O)NC(=O)[C@H](C)NC(=O)[C@H](CCCCN)NC(=O)[C@H](Cc2ccccc2)NC(=O)[C@H](C(C)C)NC(=O)[C@H](CO)NC(=O)[C@H](CO)NC(=O)[C@H](Cc2c[nH]cn2)NC(=O)[C@H](Cc2ccc(O)cc2)NC(=O)[C@H](CO)NC(=O)[C@H](CCC(N)=O)NC(=O)[C@H](CCCNC(=N)N)NC(=O)[C@H](C)NC1=O [compound 432] (H-CDATCQFRKAIDDCARQSYHSSVFKACMKQKKKEWKAG-NH2; disulfide 1-5, 14-27)	< 0.01
CDATCQFRKAIDDCQKQAHHSNVPGSVFKACMKQKKKEFKAGGGGS (disulfide 1-5, 14-31) [compound 177]	0.01 to 1
CDATCQFRKAIDDCQKQAHHSNVPGSVFKACMKQKKKEFKAGH (disulfide 1-5, 14-31) [compound 171]	0.01 to 1
CC[C@H](C)[C@H](NC(=O)[C@H](C)NC(=O)[C@H](CCCCN)NC(=O)[C@H](CCCNC(=N)N)NC(=O)[C@H](Cc1ccccc1)NC(=O)[C@H](CCC(N)=O)NC(=O)[C@@H]1CSSC[C@H](N)C(=O)N[C@@H](CC(=O)O)C(=O)N[C@@H](C)C(=O)N[C@@H]([C@@H](C)O)C(=O)N1)C(=O)N[C@@H](CC(=O)O)C(=O)N[C@@H](CC(=O)O)C(=O)N[C@H]1CSSC[C@@H](C(=O)N[C@@H](CCSC)C(=O)N[C@@H](CCCCN)C(=O)N[C@@H](CCC(N)=O)C(=O)N[C@@H](CCCCN)C(=O)N[C@@H](CCCCN)C(=O)N[C@@H](CCCCN)C(=O)N[C@@H](CCC(=O)O)C(=O)N[C@@H](Cc2c[nH]c3ccccc23)C(=O)N[C@@H](CCCCN)C(=O)N[C@@H](C)C(=O)NCC(N)=O)NC(=O)[C@H](C)NC(=O)[C@H](CCCCN)NC(=O)[C@H](Cc2ccccc2)NC(=O)[C@H](C(C)C)NC(=O)[C@H](CO)NC(=O)[C@H](CO)NC(=O)[C@H](Cc2c[nH]cn2)NC(=O)[C@H](CCCCN)NC(=O)[C@H](C)NC(=O)[C@H](CCC(N)=O)NC(=O)[C@H](CCCNC(=N)N)NC(=O)[C@H](C)NC1=O [compound 434] (H-CDATCQFRKAIDDCARQAKHSSVFKACMKQKKKEWKAG-NH2; disulfide 1-5, 14-27)	< 0.01
CSCC[C@H](NC(=O)[C@H](CO)NC(=O)[C@H](C)NC(=O)[C@H](CCCCN)NC(=O)[C@H](Cc1ccccc1)NC(=O)[C@@H](NC(=O)[C@H](CO)NC(=O)[C@H](C)NC(=O)[C@@H](NC(=O)[C@H](CC(C)C)NC(=O)CNC(=O)[C@H](CCCCN)NC(=O)[C@H](CCCNC(=N)N)NC(=O)[C@H](Cc1ccc(O)cc1)NC(=O)[C@H](CCC(N)=O)NC(=O)[C@@H]1CSSC[C@H](N)C(=O)N[C@@H](CC(=O)O)C(=O)N[C@@H](C)C(=O)N[C@@H]([C@@H](C)O)C(=O)N1)C(C)C)C(C)C)C(=O)N[C@@H](CCCCN)C(=O)N[C@@H](CCC(N)=O)C(=O)N[C@@H](CCCCN)C(=O)N[C@@H](CCCCN)C(=O)N[C@@H](CCCCN)C(=O)N[C@@H](CCC(=O)O)C(=O)N[C@@H](Cc1ccccc1)C(=O)N[C@@H](CCCCN)C(=O)N[C@@H](C)C(=O)NCC(=O)O [compound 438] (H-CDATCQYRKGLVASVFKASMKQKKKEFKAG-OH; disulfide 1-5)	> 100
CDATCQFRKAIDDCQKQAHHSNVPGSVFKSCMKQKKKEFKAG-NH2 (disulfide 1-5, 14-31) [compound 207]	0.01 to 1
CC[C@H](C)[C@H](NC(=O)[C@H](C)NC(=O)[C@H](CCCCN)NC(=O)[C@H](CCCNC(=N)N)NC(=O)[C@H](Cc1ccccc1)NC(=O)[C@H](CCC(N)=O)NC(=O)[C@@H]1CSSC[C@H](N)C(=O)N[C@@H](CC(=O)O)C(=O)N[C@@H](C)C(=O)N[C@@H]([C@@H](C)O)C(=O)N1)C(=O)N[C@@H](CC(=O)O)C(=O)N[C@@H](CC(=O)O)C(=O)N[C@H]1CSSC[C@@H](C(=O)N[C@@H](CCSC)C(=O)N[C@@H](CCCCN)C(=O)N[C@@H](CCC(N)=O)C(=O)N[C@@H](CCCCN)C(=O)N[C@@H](CCCCN)C(=O)N[C@@H](CCCCN)C(=O)N[C@@H](CCC(=O)O)C(=O)N[C@@H](Cc2c[nH]c3ccccc23)C(=O)N[C@@H](CCCCN)C(=O)N[C@@H](C)C(=O)NCC(N)=O)NC(=O)[C@H](C)NC(=O)[C@H](CCCCN)NC(=O)[C@H](Cc2ccccc2)NC(=O)[C@H](C(C)C)NC(=O)[C@H](CO)NC(=O)[C@H](CO)NC(=O)[C@H](Cc2c[nH]cn2)NC(=O)[C@H](Cc2ccc(O)cc2)NC(=O)[C@H](C)NC(=O)[C@H](CO)NC(=O)[C@H](CCCNC(=N)N)NC(=O)[C@H](C)NC1=O [compound 431] (H-CDATCQFRKAIDDCARSAYHSSVFKACMKQKKKEWKAG-NH2; disulfide 1-5, 14-27)	< 0.01
CDATCQFRKCIDDWQKQAHHSNVPGSVFKARMKQCKKEFKAG-NH2 (disulfide 1-5, 10-35) [compound 176]	1 to 100
CC[C@H](C)[C@H](NC(=O)[C@H](C)NC(=O)[C@H](CCCCN)NC(=O)[C@H](CCCNC(=N)N)NC(=O)[C@H](Cc1ccccc1)NC(=O)[C@H](CCC(N)=O)NC(=O)[C@@H]1CSSC[C@H](N)C(=O)N[C@@H](CC(=O)O)C(=O)N[C@@H](C)C(=O)N[C@@H]([C@@H](C)O)C(=O)N1)C(=O)N[C@@H](CC(=O)O)C(=O)N[C@@H](CC(=O)O)C(=O)N[C@H]1CSSC[C@@H](C(=O)N[C@@H](CCSC)C(=O)N[C@@H](CCCCN)C(=O)N[C@@H](CCC(N)=O)C(=O)N[C@@H](CCCCN)C(=O)N[C@@H](CCCCN)C(=O)N[C@@H](CCCCN)C(=O)N[C@@H](CCC(=O)O)C(=O)N[C@@H](Cc2c[nH]c3ccccc23)C(=O)N[C@@H](CCCCN)C(=O)N[C@@H](C)C(=O)NCC(N)=O)NC(=O)[C@H](C)NC(=O)[C@H](CCCCN)NC(=O)[C@H](Cc2ccccc2)NC(=O)[C@H](C(C)C)NC(=O)[C@H](CO)NC(=O)[C@H](C)NC(=O)[C@H](Cc2c[nH]cn2)NC(=O)[C@H](Cc2ccc(O)cc2)NC(=O)[C@H](C)NC(=O)[C@H](CCC(N)=O)NC(=O)[C@H](CCCNC(=N)N)NC(=O)[C@H](C)NC1=O [compound 428] (H-CDATCQFRKAIDDCARQAYHASVFKACMKQKKKEWKAG-NH2; disulfide 1-5, 14-27)	< 0.01
